Laboratory results taken from US10336768B2, “Pyrimidine compounds and methods using the same” (Yuma Therapeutics, Inc., priority 2014, dated 2019).
Where “and” joins values, the source holds several entries; their conditions need not be identical. Equal entries are not always repeated.

Legend:
His-tagged-Hsp90 = tested on: T1, His-tagged-Hsp90; assay: Hsp90 biochemical assay (AlphaLISA); assay type: binding; conditions: IC50 class; AlphaLISA (primary assay); read-out: Hsp90 inhibitory activity
T1 construct: fused on or other part: His tag (captured on Ni2+-coated beads)
Procedure: This assay employs biotinylated geldanamycin, His-tagged-Hsp90, and Ni^+2 coated beads. This assay is homogenous and miniaturized to 384-well plates. Measurement of binding activity was performed on an Envision reader. […] This assay is the primary assay for evaluating compounds of the invention.

Hsp70 = assay: Hsp90 cell based functional assay (Western blot for Hsp70, Hsp90); conditions: for Hsp 70 agonist activity: EC50 at which Hsp70 is increased two-fold: cells treated 24 h, Western blot; for Hsp 70 agonist activity: concentration at which Hsp70 is increased >2-fold: fold noted in cell: >2-fold; for EC50: read-out: Hsp 70 agonist activity; for Hsp 70 agonist activity, result in words: alternative result printed in the same cell
Procedure: Cells were treated with compounds of the invention for 24 h and then lysed in a buffer containing NP-40, orthovanadate, and protease inhibitors. Western blots were performed with antibodies specific to Hsp70, Hsp90, or actin (as control).

[1] = molecular target: truncated alpha-Hsp90 protein (Homo sapiens, UniProt P07900); assay: Hsp90 biochemical assay (fluorescence polarization); assay type: binding; conditions: footnotes (1)-(9) of Table 3, read-out: Hsp90 FP assay result
Procedure: Hsp90 inhibitory activity of the compounds of the invention was assessed using a fluorescence polarization (FP) assay using FITC-labeled geldanamycin and truncated alpha-Hsp90 protein. Measurement of binding activity was performed on BMG CLARIOstar® reader (BMG Labtech, Ortenberg, Germany).

tau = conditions: Corcoran et al., 2010; cited from earlier work

With CCNC(=O)c1cc2c(-c3c(Cl)cc(Cl)c4c3CCO4)nc(N)nc2s1 [compound 24, 2-amino-4-(5,7-dichloro-2,3-dihydrobenzofuran-4-yl)-N-ethylthieno[2,3-d]pyrimidine-6-carboxamide] the IC50 (His-tagged-Hsp90) was less than 1 µM and the “Hsp 70 agonist activity: EC50 at which Hsp70 is increased two-fold” value (Hsp70) was 0.4 µM.

In the case of CCc1cc(-c2c(Cl)cc(Cl)c3c2CCO3)nc(N)n1 [compound 6, 4-(5,7-dichloro-2,3-dihydrobenzofuran-4-yl)-6-ethylpyrimidin-2-amine], the IC50 (His-tagged-Hsp90) is reported as less than 1 µM and the “Hsp 70 agonist activity: EC50 at which Hsp70 is increased two-fold” value (Hsp70) is reported as no less than 10 µM.

With COc1nc(N)nc(-c2cc(OC)c(Cl)cc2Cl)n1 [compound 36] the IC50 (His-tagged-Hsp90) was less than 1 µM and the “Hsp 70 agonist activity: EC50 at which Hsp70 is increased two-fold” value (Hsp70) was greater than 10 µM.

In the case of Cc1nc(N)nc(-c2c(Cl)cc(Cl)c3c2CCO3)c1C [compound 10, 4-(5,7-Dichloro-2,3-dihydrobenzofuran-4-yl)-5,6-dimethylpyrimidin-2-amine], the IC50 (His-tagged-Hsp90) is reported as less than 1 µM, the IC50 [1] is reported as 2.3 µM and 2.4 µM and the “Hsp 70 agonist activity: concentration at which Hsp70 is increased >2-fold” value (Hsp70) is reported as >2-fold at 0.4 μM.

Cn1ccc2nc(N)nc(-c3c(Cl)cc(Cl)c4c3CCO4)c21 [compound 21, 4-(5,7-dichloro-2,3-dihydrobenzofuran-4-yl)-5-methyl-5H-pyrrolo[3,2-d]pyrimidin-2-amine] showed an IC50 (His-tagged-Hsp90) of 1 to 4 µM and an EC50 (Hsp70) greater than 10 µM.

In the case of COc1cc(-c2nc(N)nc3cc[nH]c23)c(Cl)cc1Cl [compound 19, 4-(2,4-Dichloro-5-methoxyphenyl)-5H-pyrrolo[3,2-d]pyrimidin-2-amine], the IC50 (His-tagged-Hsp90) is reported as less than 1 µM and the “Hsp 70 agonist activity: concentration at which Hsp70 is increased >2-fold” value (Hsp70) is reported as >2-fold at 0.4-1 μM.

In the case of COc1cc(-c2cc(Cl)nc(N)n2)c(Cl)cc1Cl [compound 39], the IC50 (His-tagged-Hsp90) is reported as less than 1 µM and the “Hsp 70 agonist activity: EC50 at which Hsp70 is increased two-fold” value (Hsp70) is reported as 0.4 µM.

In the case of CC(C)c1cc(-c2c(Cl)cc(Cl)c3c2CCO3)nc(N)n1 [compound 7, 4-(5,7-dichloro-2,3-dihydrobenzofuran-4-yl)-6-isopropylpyrimidin-2-amine], the IC50 (His-tagged-Hsp90) is reported as less than 1 µM, the IC50 [1] is reported as greater than 10 µM and the EC50 (Hsp70) is reported as greater than 10 µM.

In the case of COc1cc(-c2nc(N)nc3cc[nH]c23)c(Cl)cc1F [compound 25], the IC50 (His-tagged-Hsp90) is reported as 4 to 10 µM, the IC50 [1] is reported as 12.1 µM and 19.3 µM and the “Hsp 70 agonist activity, result in words” value (Hsp70) is reported as “no observable effect”. The “Hsp 70 agonist activity: fold increase of Hsp70” value (Hsp70; concentration not given, alternative result: no observable effect) was 1.5 fold.

CCn1ccc2nc(N)nc(-c3c(Cl)cc(Cl)c4c3CCO4)c21 [compound 22, 4-(5,7-dichloro-2,3-dihydrobenzofuran-4-yl)-5-ethyl-5H-pyrrolo[3,2-d]pyrimidin-2-amine] gave an IC50 (His-tagged-Hsp90) of 4 to 10 µM and an EC50 (Hsp70) greater than 10 µM.

In the case of CN(C)CCOc1cc(-c2nc(N)nc3cc[nH]c23)c(Cl)cc1Cl [compound 27], the IC50 (His-tagged-Hsp90) is reported as 1 to 4 µM and the “Hsp 70 agonist activity: EC50 at which Hsp70 is increased two-fold” value (Hsp70) is reported as 10 µM.

For COc1cc(-c2c(Cl)cc(Cl)c3c2CCO3)nc(N)n1 [compound 8, 4-(5,7-dichloro-2,3-dihydrobenzofuran-4-yl)-6-methoxypyrimidin-2-amine], the IC50 (His-tagged-Hsp90) was less than 1 µM, the IC50 [1] was 5.5 µM and 6.2 µM and the EC50 (Hsp70) was greater than 10 µM.

In the case of COc1cc(-c2nc(N)nc3ccn(C)c23)c(Cl)cc1F [compound 26], the IC50 (His-tagged-Hsp90) is reported as 1 to 4 µM, the IC50 [1] is reported as 8.5 µM and 11.2 µM and the “Hsp 70 agonist activity, result in words” value (Hsp70) is reported as “no observable effect”. For the same compound, the “Hsp 70 agonist activity: EC50 at which Hsp70 is increased two-fold” value (Hsp70) was 3.3 µM.

In the case of CCOC(=O)c1cc2c(-c3c(Cl)cc(Cl)c4c3CCO4)nc(N)nc2s1 [compound 23, Ethyl-2-amino-4-(5,7-dichloro-2,3-dihydrobenzofuran-4-yl)thieno[2,3-d]pyrimidine-6-carboxylate], the IC50 (His-tagged-Hsp90) is reported as 4 to 10 µM, the IC50 [1] is reported as 11.1 µM and the “Hsp 70 agonist activity: EC50 at which Hsp70 is increased two-fold” value (Hsp70) is reported as 3.3 µM.

Work on Nc1nc2c(c(-c3c(Cl)cc(Cl)c4c3CCO4)n1)CCC2 [compound 13, 4-(5,7-Dichloro-2,3-dihydrobenzofuran-4-yl)-6,7-dihydro-5H-cyclopenta[d]pyrimidin-2-amine] yielded an IC50 (His-tagged-Hsp90) of less than 1 µM, an IC50 [1] of 1.8 µM and an EC50 (Hsp70) greater than 10 µM.

In the case of O=[Se](=O)(O)O [Sodium selenate], the “efficacy in TMHT tau model” value (tau) is listed as “effective in the TMHT tau model”.

With Cc1cc(-c2c(Cl)cc(Cl)c3c2CCO3)nc(N)n1 [compound 5, 4-(5,7-Dichloro-2,3-dihydrobenzofuran-4-yl)-6-methylpyrimidin-2-amine] the IC50 (His-tagged-Hsp90) was less than 1 µM and the “Hsp 70 agonist activity: concentration at which Hsp70 is increased >2-fold” value (Hsp70) was greater than 2 fold at 0.4-1.0 μM.

With COc1cc(-c2nc(N)nc3c2CCC3)c(Cl)cc1Cl [compound 12, 4-(2,4-Dichloro-5-methoxyphenyl)-6,7-dihydro-5H-cyclopenta[d]pyrimidin-2-amine] the IC50 (His-tagged-Hsp90) was less than 1 µM, the IC50 [1] was 1.7 µM and the “Hsp 70 agonist activity: concentration at which Hsp70 is increased >2-fold” value (Hsp70) was >2-fold at ≥10 μM.

For CN(C)CCOc1cc(-c2nc(N)nc3c2CCC3)c(Cl)cc1Cl [compound 14, 4-(2,4-dichloro-5-(2-(dimethylamino)ethoxy)phenyl)-6,7-dihydro-5H-cyclopenta[d]pyrimidin-2-amine], the IC50 (His-tagged-Hsp90) was less than 1 µM and the “Hsp 70 agonist activity: concentration at which Hsp70 is increased >2-fold” value (Hsp70) was >2-fold at 10 μM.

With NC(=O)c1cc2c(-c3c(Cl)cc(Cl)c4c3CCO4)nc(N)nc2s1 [compound 29] the IC50 (His-tagged-Hsp90) was less than 1 µM and the “Hsp 70 agonist activity: EC50 at which Hsp70 is increased two-fold” value (Hsp70) was 0.4 µM.

With COc1cc(-c2nc(N)nc(C)c2C)c(Cl)cc1Cl [compound 9, 4-(2,4-Dichloro-5-methoxyphenyl)-5,6-dimethylpyrimidin-2-amine] the IC50 (His-tagged-Hsp90) was less than 1 µM, the IC50 [1] was 1 µM and 1.4 µM and the “Hsp 70 agonist activity: concentration at which Hsp70 is increased 1.5-fold” value (Hsp70; fold noted in cell: 1.5-fold) was 1.5-fold at 1 μM.
